Measured values published in ChEMBL document CHEMBL5042530, “Discovery of Novel Pyridine-Dimethyl-Phenyl-DAPY Hybrids by Molecular Fusing of Methyl-Pyrimidine-DAPYs and Difluoro-Pyridinyl-DAPYs: Improving the Druggability toward High Inhibitory Activity, Solubility, Safety, and PK” (J Med Chem, 2022).

Columns and labels:
[1] = Selectivity index, ratio of CC50 for cytotoxicity against human MT4 cells to EC50 for antiviral activity against HIV-1 IIIB infected in human MT4 cells; format: toxicity, cell-based; conditions: read-out: Ratio CC50/EC50
[2] = tested on: Human immunodeficiency virus 1; assay: Antiviral activity against HIV-1 harboring K103N mutant infected in human MT4 cells assessed as protection against virus-induced cytotoxicity incubated for 5 days by MTT assay; format: functional, organism-based; conditions: Human immunodeficiency virus 1, MT4, 120 h
[3] = target: Human immunodeficiency virus type 1 reverse transcriptase (Human immunodeficiency virus 1, UniProt Q72547); assay: Inhibition of recombinant wild type p66/p51 HIV1 reverse transcriptase incubated for 40 mins by picogreen dye-based spectrofluorometric analysis
[4] = tested on: Human immunodeficiency virus 1; assay: Antiviral activity against HIV-1 harboring E138K mutant infected in human MT4 cells assessed as protection against virus-induced cytotoxicity incubated for 5 days by MTT assay; format: functional, organism-based; conditions: Human immunodeficiency virus 1, MT4, 120 h
[5] = tested on: Human immunodeficiency virus 1; assay: Antiviral activity against wild type HIV-1 IIIB infected in human MT4 cells assessed as protection against virus-induced cytotoxicity incubated for 5 days by MTT assay; format: functional, organism-based; conditions: Human immunodeficiency virus 1, IIIB, MT4, 120 h
[6] = Cytotoxicity against human MT4 cells assessed as reduction in cell viability measured after 5 days by MTT assay; format: toxicity, cell-based; conditions: time 5 day
[7] = tested on: Human immunodeficiency virus 1; assay: Antiviral activity against HIV-1 harboring RES056 mutant infected in human MT4 cells assessed as protection against virus-induced cytotoxicity incubated for 5 days by MTT assay; format: functional, organism-based; conditions: Human immunodeficiency virus 1, MT4, 120 h
[8] = tested on: Human immunodeficiency virus 1; assay: Antiviral activity against HIV-1 harboring Y181C mutant infected in human MT4 cells assessed as protection against virus-induced cytotoxicity incubated for 5 days by MTT assay; format: functional, organism-based; conditions: Human immunodeficiency virus 1, MT4, 120 h
[9] = tested on: Human immunodeficiency virus 1; assay: Antiviral activity against HIV-1 harboring RT L100I mutant infected in human MT4 cells assessed as protection against virus-induced cytotoxicity incubated for 5 days by MTT assay; format: functional, organism-based; conditions: Human immunodeficiency virus 1, MT4, 120 h
[10] = tested on: Human immunodeficiency virus 1; assay: Antiviral activity against HIV-1 harboring F227L/V106A double mutant infected in human MT4 cells assessed as protection against virus-induced cytotoxicity incubated for 5 days by MTT assay; format: functional, organism-based; conditions: Human immunodeficiency virus 1, MT4, 120 h
[11] = tested on: Human immunodeficiency virus 1; assay: Antiviral activity against HIV-1 harboring Y188L mutant infected in human MT4 cells assessed as protection against virus-induced cytotoxicity incubated for 5 days by MTT assay; format: functional, organism-based; conditions: Human immunodeficiency virus 1, MT4, 120 h

SMILES	selectivity ratio [1]	EC50 [2] [nM]	IC50 [3] [nM]	EC50 [4] [nM]	EC50 [5] [nM]	CC50 at 120 h [6] [nM]	EC50 [7] [nM]	EC50 [8] [nM]	EC50 [9] [nM]	EC50 [10] [nM]	EC50 [11] [nM]
Cc1ncc(-c2cc(C)c(Nc3ccnc(Nc4ccc(C#N)cc4)n3)c(C)c2)cn1	2440	7.8	46.7	24	1.6	3900	641	23	68	–	–
Cc1cc(-c2cccc3cc[nH]c23)cc(C)c1Nc1ccnc(Nc2ccc(C#N)cc2)n1	44	271	60.5	124	23	1000	–	–	–	–	–
Cc1cc(-c2ccnc3ccccc23)cc(C)c1Nc1ccnc(Nc2ccc(C#N)cc2)n1	618	20	40.7	36	5.7	3500	274	30	75	1670	1340
Cc1cnc(Nc2ccc(C#N)cc2)nc1Nc1c(F)cc(-c2ccco2)cc1F	1920	33	12	11.2	4.2	8100	–	187	114	–	856
Cc1cnc(Nc2ccc(C#N)cc2)nc1Nc1c(F)cc(-c2ccsc2)cc1F	36700	185	12	49.5	7.1	261000	–	306	279	–	1290
Cc1cc(-c2ccco2)cc(C)c1Nc1ccnc(Nc2ccc(C#N)cc2)n1	335	10	38.1	14	5.1	1700	–	28	51	–	150
Cc1cnc(Nc2ccc(C#N)cc2)nc1Nc1c(F)cc(-c2cncc(C#N)c2)cc1F	2080	135	271	86	24	50000	–	1410	1880	–	> 2000
Cc1cnc(Nc2ccc(C#N)cc2)nc1Nc1c(F)cc(-c2ccoc2)cc1F	742	48	8.4	12.3	5.7	4200	–	150	228	–	1340
Cc1cnc(Nc2ccc(C#N)cc2)nc1Nc1c(F)cc(-c2cncc(C(F)(F)F)c2)cc1F	41	631	857	482	201	8200	–	> 2000	> 2000	–	> 2000
Cc1cnc(Nc2ccc(C#N)cc2)nc1Nc1c(F)cc(-c2cc(F)nc(F)c2)cc1F	9570	117	55	66	11	103000	–	285	1730	–	> 2000
Cc1cc(-c2ccc3cc[nH]c3c2)cc(C)c1Nc1ccnc(Nc2ccc(C#N)cc2)n1	275	209	53.4	139	21	5800	–	497	577	–	–
Cc1cc(-c2cc(C)c(Nc3ccnc(Nc4ccc(C#N)cc4)n3)c(C)c2)ccn1	2880	5.9	35.7	11	1.7	4900	225	17	44	562	229
Cc1cc(-c2cc(F)nc(F)c2)cc(C)c1Nc1ccnc(Nc2ccc(C#N)cc2)n1	1740	13	45.6	45	3.6	6300	620	47	91	859	–
Cc1csc(-c2cc(C)c(Nc3ccnc(Nc4ccc(C#N)cc4)n3)c(C)c2)c1	3060	50	56	43	11	34000	–	116	231	–	941
Cc1ccc(-c2cc(C)c(Nc3ccnc(Nc4ccc(C#N)cc4)n3)c(C)c2)s1	2570	57	43.8	47	11	28000	–	179	249	–	1280
Cc1cnc(Nc2ccc(C#N)cc2)nc1Nc1c(F)cc(-c2ccncc2)cc1F	–	5.4	12	9.2	–	–	–	22	35	–	258
Cc1cnc(Nc2ccc(C#N)cc2)nc1Nc1c(F)cc(-c2ccnc(F)c2)cc1F	45200	20.9	36	17.9	3.7	167000	–	74.5	105	–	> 2000
Cc1cnc(Nc2ccc(C#N)cc2)nc1Nc1c(F)cc(-c2cncnc2)cc1F	59	88	280	87	16	900	–	> 916	> 916	–	> 916
Cc1cc(-c2cccs2)cc(C)c1Nc1ccnc(Nc2ccc(C#N)cc2)n1	2850	13	29	15	3.5	10000	853	43	52	847	232
Cc1cc(-c2ccnc(C(F)(F)F)c2)cc(C)c1Nc1ccnc(Nc2ccc(C#N)cc2)n1	923	37	68.5	47	6.6	6100	–	128	231	–	–
Cc1cc(-c2cncnc2)cc(C)c1Nc1ccnc(Nc2ccc(C#N)cc2)n1	4020	10	343	36	1.7	6800	588	48	113	–	–
Cc1cnc(Nc2ccc(C#N)cc2)nc1Nc1c(F)cc(-c2ccc(C#N)nc2)cc1F	37500	11	22	8.5	1.6	62000	–	35	52	–	2380
Cc1cnc(Nc2ccc(C#N)cc2)nc1Nc1c(F)cc(-c2cccnc2)cc1F	80	111	197	59	14	1100	–	> 1090	> 1090	–	> 1090
Cc1cc(-c2cc(C)c(Nc3ccnc(Nc4ccc(C#N)cc4)n3)c(C)c2)cc(C)n1	375	33	66.7	58	6.2	2300	–	85	260	1720	1840
Cc1cc(-c2cnc(C(F)(F)F)nc2)cc(C)c1Nc1ccnc(Nc2ccc(C#N)cc2)n1	951	8.4	64	37	5.2	4900	429	29.8	98	–	1260
Cc1cc(-c2cc3ccccc3s2)cc(C)c1Nc1ccnc(Nc2ccc(C#N)cc2)n1	3780	170	61.5	206	36	138000	–	431	713	206	2820
Cc1cnc(Nc2ccc(C#N)cc2)nc1Nc1c(F)cc(-c2cccs2)cc1F	1330	51	12	12	6	8000	–	241	176	–	980
O=C1Nc2ccc(Cl)cc2[C@@](C#CC2CC2)(C(F)(F)F)O1 [EFAVIRENZ]	–	–	–	–	–	> 6330	560	–	10.7	410	–
Cc1cc(C#N)cc(C)c1Oc1nc(Nc2ccc(C#N)cc2)nc(N)c1Br [ETRAVIRINE]	–	–	–	–	–	> 4600	101	–	44.7	31	–
Cc1ccnc2c1NC(=O)c1cccnc1N2C1CC1 [NEVIRAPINE]	–	–	–	–	–	> 15000	–	–	–	–	> 2000
